In ChEMBL document CHEMBL4396891, “Recent update on anti-dengue drug discovery” (Eur J Med Chem, 2019):
In brackets after ≈: the same amount, converted by molar mass.

Columns and labels:
dengue virus type 2 [1] = test: Antiviral activity against DENV2 infected in human HepG2 cells; assay type: functional, organism-based
dengue virus type 2 [2] = test: Virucidal activity against DENV2 infected in human HepG2 cells; assay type: functional, organism-based
dengue virus type 2 [3] = test: Virucidal activity against DENV2 infected in human HeLa cells; assay type: functional, organism-based
dengue virus type 1 [4] = test: Antiviral activity against DENV1 02-20 infected in African green monkey Vero cells after 3 days by focus reduction assay; assay type: functional, organism-based; conditions: 02-20, Vero, 72 h
dengue virus type 4 [5] = test: Antiviral activity against DENV4 09-48 infected in African green monkey Vero cells after 3 days by focus reduction assay; assay type: functional, organism-based; conditions: 09-48, Vero, 72 h
dengue virus type 2 [6] = test: Antiviral activity against DENV2 16681 infected in African green monkey Vero cells after 3 days by focus reduction assay; assay type: functional, organism-based; conditions: Dengue virus, 16681, Vero, 72 h
dengue virus type 3 [7] = test: Antiviral activity against DENV3 00-40 infected in African green monkey Vero cells after 3 days by focus reduction assay; assay type: functional, organism-based; conditions: 00-40, Vero, 72 h
dengue virus type 1 [8] = test: Antiviral activity against DENV1 infected in African green monkey Vero cells after 30 mins by immunofluorescence assay; assay type: functional, organism-based; conditions: 0.5 h
dengue virus type 2 [9] = test: Antiviral activity against DENV2 infected in African green monkey Vero cells after 30 mins by immunofluorescence assay; assay type: functional, organism-based; conditions: 0.5 h
dengue virus type 4 [10] = test: Antiviral activity against DENV4 infected in African green monkey Vero cells after 30 mins by immunofluorescence assay; assay type: functional, organism-based; conditions: 0.5 h
dengue virus type 3 [11] = test: Antiviral activity against DENV3 infected in African green monkey Vero cells after 30 mins by immunofluorescence assay; assay type: functional, organism-based; conditions: 0.5 h
dengue virus type 1 [12] = test: Antiviral activity against DENV1 infected in mouse RAW 264.7 cells by MTT assay; assay type: functional, organism-based; conditions: RAW264.7
Genome polyprotein = Genome polyprotein (dengue virus type 2, UniProt P29990); test: Inhibition of Dengue virus NS2B-NS3 serine protease expressed in mouse RAW 264.7 cells; assay type: cell-based
dengue virus type 4 [13] = test: Antiviral activity against DENV4 infected in mouse RAW 264.7 cells by MTT assay; assay type: functional, organism-based; conditions: RAW264.7
dengue virus type 2 [14] = test: Antiviral activity against DENV2 infected in mouse RAW 264.7 cells by MTT assay; assay type: functional, organism-based; conditions: RAW264.7
dengue virus type 3 [15] = test: Antiviral activity against DENV3 infected in mouse RAW 264.7 cells by MTT assay; assay type: functional, organism-based; conditions: RAW264.7
dengue virus type 2 [16] = test: Virucidal activity against DENV2; assay type: functional, organism-based
dengue virus type 2 [17] = test: Antiviral activity against DENV2 infected in African green monkey Vero cells by focus formation unit reduction assay; assay type: functional, organism-based
dengue virus type 1 [18] = test: Antiviral activity against DENV1 infected in human A549 cells after 3 days by focus reduction assay; assay type: functional, organism-based; conditions: A549, 72 h
dengue virus type 2 [19] = test: Antiviral activity against DENV2 ICC265 infected in human Huh7 cells assessed as reduction in viral titer by plaque assay; assay type: functional, organism-based; conditions: ICC265, Huh-7
dengue virus type 2 [20] = test: Antiviral activity against DENV2 infected in monkey LLC-MK2 cells assessed as reduction in plaque formation after 72 hrs by 96-well based plaque titration method; assay type: functional, organism-based; conditions: LLC-MK2, 72 h
dengue virus type 2 [21] = test: Antiviral activity against DENV2 infected in African green monkey Vero cells assessed as reduction in plaque formation after 72 hrs by 96-well based plaque titration method; assay type: functional, organism-based
dengue virus type 2 [22] = test: Antiviral activity against DENV2 infected in BHK-21 cells; assay type: functional, organism-based

Genome polyprotein, sequence (P29990 1346-1475 limits assumed): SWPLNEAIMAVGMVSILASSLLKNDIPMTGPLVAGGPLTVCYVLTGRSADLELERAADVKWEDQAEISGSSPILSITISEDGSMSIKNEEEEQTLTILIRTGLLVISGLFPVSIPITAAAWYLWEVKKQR
Genome polyprotein, sequence (P29990 1476-2093 limits assumed): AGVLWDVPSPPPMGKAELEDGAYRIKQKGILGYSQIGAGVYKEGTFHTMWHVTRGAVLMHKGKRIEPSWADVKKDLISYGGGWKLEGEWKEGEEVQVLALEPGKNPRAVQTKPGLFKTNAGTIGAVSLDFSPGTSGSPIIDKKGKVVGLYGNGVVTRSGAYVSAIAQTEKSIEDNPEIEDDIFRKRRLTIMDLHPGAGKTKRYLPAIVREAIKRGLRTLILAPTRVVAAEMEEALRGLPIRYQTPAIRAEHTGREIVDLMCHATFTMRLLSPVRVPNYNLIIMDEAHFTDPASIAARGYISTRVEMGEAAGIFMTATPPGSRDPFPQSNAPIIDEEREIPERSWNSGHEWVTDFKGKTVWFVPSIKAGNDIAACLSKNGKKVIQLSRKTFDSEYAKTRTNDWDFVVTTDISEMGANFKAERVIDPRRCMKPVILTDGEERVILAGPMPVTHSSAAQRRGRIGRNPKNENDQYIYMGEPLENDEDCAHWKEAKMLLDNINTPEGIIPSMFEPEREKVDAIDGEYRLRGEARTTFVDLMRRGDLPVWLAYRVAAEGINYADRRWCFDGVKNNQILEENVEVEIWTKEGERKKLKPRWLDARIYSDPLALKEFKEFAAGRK

`COc1ccc([C@@H]2CC(=O)c3c(O)cc(O[C@@H]4O[C@H](CO[C@@H]5OC[C@](O)(CO)[C@H]5O)[C@@H](O)[C@H](O)[C@H]4O)cc3O2)cc1` showed an IC50 (dengue virus type 2 [1]) of 13.1 µg/mL (≈ 22.6 µM).

With `C=C1CC[C@@H]2[C@](C)(CO)[C@H](O)CC[C@@]2(C)[C@@H]1C/C=C1/C(=O)OC[C@H]1O` [ANDROGRAPHOLIDE] the EC50 (dengue virus type 2 [2]) was 21.3 µM and the EC50 (dengue virus type 2 [3]) was 22.7 µM.

Work on `CC(C)C[C@H]1C(=O)N2CCC[C@H]2[C@]2(O)O[C@](NC(=O)[C@@H]3C=C4c5cccc6[nH]c(Br)c(c56)C[C@H]4N(C)C3)(C(C)C)C(=O)N12` [BROMOCRIPTINE] yielded an EC50 (dengue virus type 1 [4]) of 1.6 µM, an EC50 (dengue virus type 4 [5]) of 0.8 to 1.2 µM and an EC50 (dengue virus type 2 [6]) of 0.8 to 1.2 µM. The EC50 (dengue virus type 3 [7]) was 0.8 to 1.2 µM.

`C/C(=N\NC(N)=S)[C@H](Cc1c[nH]c2ccccc12)NC(=O)c1ccccc1` gave an EC50 (dengue virus type 1 [8]) of 30 to 50 µM, an EC50 (dengue virus type 2 [9]) of 30 to 50 µM and an EC50 (dengue virus type 4 [10]) of 30 to 50 µM. It also gave an EC50 (dengue virus type 3 [11]) of 30 to 50 µM.

In the case of `CC(=O)O[C@H]1CC(C)(C)C(=C=C/C(C)=C/C=C/C=C/C=C(C)/C=C2C=C(/C=C/[C@@]34O[C@]3(C)C[C@@H](O)CC4(C)C)C(=O)O/2)[C@](C)(O)C1`, the EC50 (dengue virus type 1 [12]) is reported as 5.84 to 7.62 µM, the EC50 (Genome polyprotein) is reported as 8.5 µM and the EC50 (dengue virus type 4 [13]) is reported as 5.84 to 7.62 µM. For the same molecule, the EC50 (dengue virus type 2 [14]) was 5.84 to 7.62 µM and the EC50 (dengue virus type 3 [15]) was 5.84 to 7.62 µM.

`O=C(O)[C@H]1O[C@@H](Oc2cc3oc(-c4ccccc4)cc(=O)c3c(O)c2O)[C@H](O)[C@@H](O)[C@@H]1O` [BAICALIN] gave an IC50 (dengue virus type 2 [16]) of 8.74 µg/mL (≈ 19.6 µM) and an IC50 (dengue virus type 2 [17]) of 13.5 µg/mL (≈ 30.2 µM).

With `CC[C@H]1CN2CCc3c([nH]c4ccccc34)[C@H]2C[C@@H]1/C(=C\OC)C(=O)OC` [HIRSUTINE] the EC50 (dengue virus type 1 [18]) was 1.9 µM.

`COc1cc2c(c(OC)c1OC)-c1c(cc(OC)c(OC)c1OC)C[C@H](C)[C@H](C)C2` [SCHISANDRIN A] gave an EC50 (dengue virus type 2 [19]) of 28.1 µM.

In the case of `COc1cc2c(c(O)c1C)C(=O)CC(c1ccccc1)O2` (stereo not drawn) [STROBOPININ-7-METHYLETHER], the EC50 (dengue virus type 2 [20]) is reported as 3.72 µM and the EC50 (dengue virus type 2 [21]) is reported as 12.3 µM.

Work on `O=c1c(O)c(-c2ccc(O)c(O)c2)oc2cc(O)cc(O)c12` [QUERCETIN] yielded an IC50 (dengue virus type 2 [22]) of 176 µg/mL (≈ 583 µM).
